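Briefly, cells in 96-well plates were exposed to five compound concentrations for 48 h, and endpoints were estimated by linear interpolation. Abbreviation: GI50, concentration required for 50% inhibition of growth. At the TGI there is no net growth.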
Assays:
Assay in all cases: inhibition of tumour cell growth, NCI panel, 48 h
[1] = test system: A498 renal
[2] = test system: CAKI-1 renal
[3] = test system: HOP-92 NSCLC
[4] = test system: NCI-H226 lung
[5] = test system: COLO 205 colon
[6] = test system: SK-MEL-28 melanoma
[7] = test system: HT29 colon
[8] = test system: MCF7 breast
[9] = test system: HCT-15 colon
[10] = test system: EKVX NSCLC
[11] = test system: SK-OV-3 ovarian
[12] = test system: UACC-62 melanoma
[13] = test system: TK-10 renal
[14] = test system: SF-539 CNS
[15] = test system: OVCAR-8 ovarian
[16] = test system: U251 CNS
[17] = test system: IGROV1 ovarian
[18] = test system: PC-3 prostate
[19] = test system: RXF 393 renal
[20] = test system: SF-268 CNS
[21] = test system: RPMI-8226 leukemia
[22] = test system: MDA-MB-231 breast
[23] = test system: MOLT-4 leukemia
[24] = test system: SW-620 colon
[25] = test system: SNB-75 CNS
[26] = test system: OVCAR-3 ovarian
[27] = test system: ACHN renal
[28] = test system: SK-MEL-2 melanoma
[29] = test system: 786-0 renal
[30] = test system: BT-549 breast
[31] = test system: OVCAR-5 ovarian
[32] = test system: LOX IMVI melanoma
[33] = test system: UO-31 renal
[34] = test system: NCI-H23 lung
[35] = test system: UACC-257 melanoma
[36] = test system: K-562 leukemia
[37] = test system: SR leukemia
[38] = test system: DU-145 prostate
[39] = test system: T-47D breast
[40] = test system: MDA-MB-435
[41] = test system: SNB-19 CNS
[42] = test system: SK-MEL-5 melanoma
[43] = test system: SN12C renal
[44] = test system: HCC-2998 colon
[45] = test system: HS 578T breast
[46] = test system: SF-295 CNS
[47] = test system: HCT-116 colon
[48] = test system: A549 NSCLC
[49] = test system: CCRF-CEM leukemia
[50] = test system: MALME-3M melanoma
[51] = test system: NCI-H522 lung
[52] = test system: NCI-H460 lung
[53] = test system: OVCAR-4 ovarian
[54] = test system: NCI/ADR-RES ovarian
[55] = test system: KM12 colon

In the case of `COc1ccc2c(c1)CCC1C2CC[C@@]2(C)C1CC[C@@H]2NC(=O)Cc1ccc(O)c(O)c1` (stereo not given in full), the GI50 [1] is reported as 18.8 µM, the TGI [1] is reported as 33.7 µM and the GI50 [2] is reported as 8.53 µM. It also gave a TGI [2] of 21.7 µM, a GI50 [3] of 14.2 µM and a TGI [3] of 30.8 µM. It also gave a GI50 [4] of 10.1 µM, a TGI [4] of 35.3 µM and a GI50 [5] of 3.34 µM. For the same compound, the TGI [5] was 12.5 µM, the GI50 [6] was 9.9 µM and the TGI [6] was 24.2 µM. It also gave a GI50 [7] of 10.3 µM, a TGI [7] of 25.3 µM and a GI50 [8] of 11.2 µM. For the same compound, the TGI [8] was 32.1 µM, the GI50 [9] was 3.74 µM and the TGI [9] was 16.7 µM. It also gave a GI50 [10] of 13.5 µM, a TGI [10] of 31.4 µM and a GI50 [11] of 16.7 µM. For the same compound, the TGI [11] was 33.4 µM, the GI50 [12] was 4.14 µM and the TGI [12] was 14.8 µM. For the same compound, the GI50 [13] was 8.86 µM, the TGI [13] was 22.1 µM and the GI50 [14] was 4.84 µM. The TGI [14] was 17.3 µM, the GI50 [15] was 8.71 µM and the TGI [15] was 30.8 µM. The GI50 [16] was 4.94 µM, the TGI [16] was 18.8 µM and the GI50 [17] was 2.29 µM. It also gave a TGI [17] of 7.68 µM, a GI50 [18] of 6.3 µM and a TGI [18] of 19.4 µM. The GI50 [19] was 10.7 µM, the TGI [19] was 27.3 µM and the GI50 [20] was 7.48 µM. The TGI [20] was 25.3 µM, the GI50 [21] was 3.68 µM and the TGI [21] was > 100 µM. The GI50 [22] was 4.05 µM, the TGI [22] was 16.9 µM and the GI50 [23] was 2.76 µM. For the same compound, the TGI [23] was 83 µM, the GI50 [24] was 6.41 µM and the TGI [24] was 25 µM. It also gave a GI50 [25] of 3.44 µM, a TGI [25] of 12.5 µM and a GI50 [26] of 3.7 µM. It also gave a TGI [26] of 19.2 µM, a GI50 [27] of 6.01 µM and a TGI [27] of 18.9 µM. It also gave a GI50 [28] of 15.2 µM, a TGI [28] of 33.8 µM and a GI50 [29] of 5 µM. It also gave a TGI [29] of 17.7 µM, a GI50 [30] of 9.66 µM and a TGI [30] of 25.5 µM. It also gave a GI50 [31] of 19.8 µM, a TGI [31] of 37.7 µM and a GI50 [32] of 8.15 µM. The TGI [32] was 20.6 µM, the GI50 [33] was 3.56 µM and the TGI [33] was 15.2 µM. It also gave a GI50 [34] of 11.9 µM, a TGI [34] of 27.6 µM and a GI50 [35] of 17 µM. For the same compound, the TGI [35] was 30.8 µM, the GI50 [36] was 4.31 µM and the TGI [36] was > 100 µM. For the same compound, the GI50 [37] was 3.46 µM, the TGI [37] was 18.7 µM and the GI50 [38] was 8.47 µM. It also gave a TGI [38] of 20.8 µM, a GI50 [39] of 6.91 µM and a TGI [39] of 72.8 µM. For the same compound, the GI50 [40] was 4.63 µM, the TGI [40] was 17.2 µM and the GI50 [41] was 13.3 µM. It also gave a TGI [41] of 33.4 µM, a GI50 [42] of 8.96 µM and a TGI [42] of 21.8 µM. It also gave a GI50 [43] of 5.79 µM, a TGI [43] of 19.6 µM and a GI50 [44] of 13.4 µM. For the same compound, the TGI [44] was 28.2 µM, the GI50 [45] was 7.22 µM and the TGI [45] was 43.9 µM. The GI50 [46] was 13.4 µM, the TGI [46] was 32.1 µM and the GI50 [47] was 3.53 µM. For the same compound, the TGI [47] was 18.9 µM, the GI50 [48] was 14.6 µM and the TGI [48] was 29.9 µM. The GI50 [49] was 2.86 µM, the TGI [49] was 17.6 µM and the GI50 [50] was 9.13 µM. For the same compound, the TGI [50] was 41 µM, the GI50 [51] was 1.9 µM and the TGI [51] was 4.25 µM. It also gave a GI50 [52] of 12.3 µM, a TGI [52] of 31.9 µM and a GI50 [53] of 4.26 µM. It also gave a TGI [53] of 18.6 µM, a GI50 [54] of 10.7 µM and a TGI [54] of 33.6 µM. The GI50 [55] was 5.47 µM and the TGI [55] was 21.7 µM.

Source: PubChem BioAssay (NCI)
